Results as given in ChEMBL document CHEMBL5244240, “MmpL3 inhibitors as antituberculosis drugs” (Eur J Med Chem, 2020).
Values after ≈ are worked out from the molar mass of the structure shown.

Assays:
[1] = test system: Mycobacterium tuberculosis; assay: Antitubercular activity against multidrug resistant Mycobacterium tuberculosis; assay type: functional
[2] = test system: Mycobacterium tuberculosis; assay: Antitubercular activity against low oxygen adapted Mycobacterium tuberculosis H37Rv; assay type: functional

| Structure (SMILES) | MIC [1] [µM] | MIC [2] [µM] |
| --- | --- | --- |
| CC1(C)CCC(NC(=O)c2cc3c(Cl)cc(Cl)cc3[nH]2)CC1 | < 0.04 | – |
| CC1(C)CCC(NC(=O)c2cc3c(F)cc(F)cc3[nH]2)CC1 | < 0.04 | – |
| Cc1c(CN2CCOCC2)cc(-c2ccc(C(C)C)cc2)n1-c1ccc(F)cc1 | – | 28.7 (≈ 11.3 µg/mL) |
| COc1ccc(-c2cc(CN3CCSCC3)c(C)n2-c2ccc(F)cc2)cc1 | – | 10.1 (≈ 4 µg/mL) |
